Data reported in patent US9458104B2 (priority 2012, dated 2016).

Legend:
[1] = molecular target: T1, RORγ ligand binding domain (LBD) (Homo sapiens, UniProt P51449); test: TR-FRET Activity Assay (ligand sensing assay, RORγ-LBD / coactivator peptide interaction); assay type: biochemical
T1 construct: made in house; host or cells: E. coli BL-21 (BL3), vector pDEST15
T1 sequence (P51449 269-508 limits assumed): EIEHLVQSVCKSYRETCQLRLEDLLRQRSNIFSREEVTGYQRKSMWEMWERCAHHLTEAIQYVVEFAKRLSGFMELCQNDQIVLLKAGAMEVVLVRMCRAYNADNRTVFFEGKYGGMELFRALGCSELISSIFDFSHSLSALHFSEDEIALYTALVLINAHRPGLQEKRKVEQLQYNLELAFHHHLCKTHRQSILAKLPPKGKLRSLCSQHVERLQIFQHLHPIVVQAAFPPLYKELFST
Method in brief: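 GST-RORγ LBD expressed in bacteria, 20–60 ng/well, with biotinylated coactivator peptide 200–600 nM, streptavidin-APC and Eu-anti-GST. Buffer: 20 mM Tris-HCl pH 6.8, 60 mM KCl, 1 mM DTT, 5 mM MgCl2, BSA; 1% DMSO. LANCE TR-FRET 665/615 nm ratio; IC50 from four-parameter logistic fit.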

RORγ = molecular target: T2, RORγ (UniProt P51449); assay type: cell-based; conditions: 293T cells, 16 h; for pIC50 (FF): firefly (FF) luciferase; for pIC50 (REN): renilla normalised (RENnorm) luciferase
T2 construct: hRORg-LBD|aa259-518|NP_005051.2; hRORgt|aa1-497|NP_001001523 (RORg, t isoform, 497aa); mRORg-LBD|aa264-516|NP_035411
T2 sequence (P51449 1-518): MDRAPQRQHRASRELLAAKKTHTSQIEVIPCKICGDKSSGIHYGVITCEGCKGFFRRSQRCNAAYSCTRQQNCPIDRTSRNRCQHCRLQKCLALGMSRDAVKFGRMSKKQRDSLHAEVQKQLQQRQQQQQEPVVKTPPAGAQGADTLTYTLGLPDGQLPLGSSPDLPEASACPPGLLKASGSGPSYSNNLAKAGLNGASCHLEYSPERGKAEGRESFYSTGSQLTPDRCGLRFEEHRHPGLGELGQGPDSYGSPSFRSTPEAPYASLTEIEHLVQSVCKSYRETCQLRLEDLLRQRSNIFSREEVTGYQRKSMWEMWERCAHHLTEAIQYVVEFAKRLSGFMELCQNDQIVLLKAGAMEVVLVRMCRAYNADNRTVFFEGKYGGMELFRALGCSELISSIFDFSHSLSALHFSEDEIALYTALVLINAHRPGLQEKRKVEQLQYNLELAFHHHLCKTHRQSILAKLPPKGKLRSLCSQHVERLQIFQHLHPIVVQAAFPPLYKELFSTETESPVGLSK

## Cc1c(C(=O)N[C@H]2C[C@H](C(=O)O)C2)cn(-c2cc(C(C)(C)C)cc(C3(C)CC3)c2)c1C(=O)C1CCCCC1 [Example 6, (trans)-3-(1-(3-(tert-Butyl)-5-(1-methylcyclopropyl)phenyl)-5-(cyclohexanecarbonyl)-4-methyl-1H-pyrrole-3-carboxamido)cyclobutanecarboxylic acid]
[1]
  IC50: 0.501 µM
RORγ
  pIC50 (FF): 7.9
  pIC50 (REN): 8.0

## Cn1c(C(=O)N[C@H]2C[C@H](C(=O)O)C2)cc(-c2cc(C(C)(C)C)cc(C3(C)CC3)c2)c1CC1CCCCC1 [Example 8, (trans)-3-(4-(3-(tert-BUTYL)-5-(1-methylcyclopropyl)phenyl)-5-(cyclohexylmethyl)-1-methyl-1H-pyrrole-2-carboxamido)cyclobutanecarboxylic acid]
[1]
  IC50: 1 µM
RORγ
  pIC50 (FF): 7.6
  pIC50 (REN): 7.7

## Cn1c(C(=O)NCCC(C)(C)C(=O)O)cc(-c2ccc(S(=O)(=O)NC(C)(C)C)c(C(C)(C)C)c2)c1CC1CCCCC1 [Example 8/1]
[1]
  IC50: 2 µM
RORγ
  pIC50 (FF): 7.0
  pIC50 (REN): 7.0

## Cc1c(C(=O)NCCC(C)(C)C(=O)O)c(Cl)n(-c2ccc(S(=O)(=O)NC(C)(C)C)c(C(F)(F)F)c2)c1CC1CCCCC1 [Example 9, 4-(1-(4-(N-(tert-Butyl)sulfamoyl)-3-(trifluoromethyl)phenyl)-2-chloro-5-(cyclohexylmethyl)-4-methyl-1H-pyrrole-3-carboxamido)-2,2-dimethylbutanoic acid]
[1]
  IC50: 0.794 µM
RORγ
  pIC50 (FF): 8.4
  pIC50 (REN): 8.4

## Cc1c(C(=O)NCCC(C)(C)C(=O)O)c(C#N)n(-c2ccc(S(=O)(=O)NC(C)(C)C)c(C(F)(F)F)c2)c1CC1CCCCC1 [Example 10, 4-(1-(4-(N-(tert-Butyl)sulfamoyl)-3-(trifluoromethyl)phenyl)-2-cyano-5-(cyclohexylmethyl)-4-methyl-1H-pyrrole-3-carboxamido)-2,2-dimethylbutanoic acid]
[1]
  IC50: 1.58 µM
RORγ
  pIC50 (FF): 6.9
  pIC50 (REN): 6.9

## CC(C)(C)c1cc(-c2[nH]c(C(=O)NC3CCOCC3)cc2CC2CCCCC2)cc(C2(C)CC2)c1 [Example 12, 5-(3-(tert-Butyl)-5-(1-methylcyclopropyl)phenyl)-4-(cyclohexylmethyl)-N-(tetrahydro-2H-pyran-4-yl)-1H-pyrrole-2-carboxamide]
[1]
  IC50: 1 µM
RORγ
  pIC50 (FF): 6.9
  pIC50 (REN): 6.8

## CC(C)(C)c1cc(-c2[nH]c(C(=O)N[C@H]3C[C@H](C(=O)O)C3)cc2CC2CCCCC2)cc(C2(C)CC2)c1 [Example 12/2]
[1]
  IC50: 1.26 µM
RORγ
  pIC50 (FF): 6.6
  pIC50 (REN): 6.6

## Cc1c(C(=O)NC2CCOCC2)cn(-c2cc(C(C)(C)C)cc(C3(C)CC3)c2)c1C(=O)N1CCCCC1 [Example 13, 1-(3-(tert-Butyl)-5-(1-methylcyclopropyl)phenyl)-4-methyl-5-(piperidine-1-carbonyl)-N-(tetrahydro-2H-pyran-4-yl)-1H-pyrrole-3-carboxamide]
[1]
  IC50: 1 µM
RORγ
  pIC50 (FF): 7.1
  pIC50 (REN): 7.1

## Cc1c(C(=O)N[C@H]2C[C@H](C(=O)O)C2)cn(-c2cc(C(C)(C)C)cc(C3(C)CC3)c2)c1C(=O)N1CCCCC1 [Example 13/1]
[1]
  IC50: 1 µM
RORγ
  pIC50 (FF): 6.7
  pIC50 (REN): 6.8

## COC(c1c(C)c(C(=O)NC2CCOCC2)cn1-c1cc(C(C)(C)C)cc(C2(C)CC2)c1)C1CCCCC1 (stereo not drawn) [Example 14, 1-(3-(tert-Butyl)-5-(1-methylcyclopropyl)phenyl)-5-(cyclohexyl(methoxy)methyl)-4-methyl-N-(tetrahydro-2H-pyran-4-yl)-1H-pyrrole-3-carboxamide]
[1]
  IC50: 2 µM
RORγ
  pIC50 (FF): 6.1
  pIC50 (REN): 6.3

## COC(c1c(C)c(C(=O)N[C@H]2C[C@H](C(=O)O)C2)cn1-c1cc(C(C)(C)C)cc(C2(C)CC2)c1)C1CCCCC1 (stereo partly drawn) [Example 14/1]
[1]
  IC50: 1.58 µM
RORγ
  pIC50 (FF): 6.6
  pIC50 (REN): 6.6

## Cc1c(C(=O)NC2CCOCC2)cn(-c2cc(C(C)(C)C)cc(C3(C)CC3)c2)c1C(O)C1CCCCC1 (stereo not drawn) [Example 15, 1-(3-(tert-Butyl)-5-(1-methylcyclopropyl)phenyl)-5-(cyclohexyl(hydroxy)methyl)-4-methyl-N-(tetrahydro-2H-pyran-4-yl)-1H-pyrrole-3-carboxamide]
[1]
  IC50: 0.631 µM
RORγ
  pIC50 (FF): 7.0
  pIC50 (REN): 7.0

## Cc1c(C(=O)N[C@H]2C[C@H](C(=O)O)C2)c(C)n(-c2cc(C(C)(C)O)cc(C3(C)CC3)c2)c1CC1CCCCC1 [Example 16, trans-3-(5-(Cyclohexylmethyl)-1-(3-(2-hydroxypropan-2-yl)-5-(1-methylcyclopropyl)phenyl)-2,4-dimethyl-1H-pyrrole-3-carboxamido)cyclobutanecarboxylic acid]
[1]
  IC50: 1.58 µM
RORγ
  pIC50 (FF): 6.6
  pIC50 (REN): 6.7

## CC(C)(O)c1cc(-c2cc(C(=O)N[C@H]3C[C@H](C(=O)O)C3)[nH]c2CC2CCCCC2)cc(C2(C)CC2)c1 [Example 17, trans-3-(5-(Cyclohexylmethyl)-4-(3-(2-hydroxypropan-2-yl)-5-(1-methylcyclopropyl)phenyl)-1H-pyrrole-2-carboxamido)cyclobutanecarboxylic acid]
[1]
  IC50: 1.26 µM
RORγ
  pIC50 (FF): 6.4
  pIC50 (REN): 6.3

## CC(C)(C)c1cc(-c2cc(C(=O)N[C@H]3C[C@H](C(=O)O)C3)[nH]c2CC2CCCCC2)cc(C2(C)CC2)c1 [Example 17/1]
[1]
  IC50: 0.794 µM
RORγ
  pIC50 (FF): 7.0
  pIC50 (REN): 7.1

## CC(C)(C)c1cc(-c2[nH]c(C(=O)N[C@H]3C[C@H](C(=O)O)C3)c(Cl)c2CC2CCCCC2)cc(C2(C)CC2)c1 [Example 18, trans-3-(5-(3-(tert-Butyl)-5-(1-methylcyclopropyl)phenyl)-3-chloro-4-(cyclohexylmethyl)-1H-pyrrole-2-carboxamido)cyclobutanecarboxylic acid]
[1]
  IC50: 1.26 µM
RORγ
  pIC50 (FF): 6.6
  pIC50 (REN): 6.5

## Cn1c(C(=O)N[C@H]2C[C@H](C(=O)O)C2)c(Cl)c(CC2CCCCC2)c1-c1cc(C(C)(C)C)cc(C2(C)CC2)c1 [Example 18/1]
[1]
  IC50: 0.794 µM
RORγ
  pIC50 (FF): 6.6
  pIC50 (REN): 6.7

## Cn1c(C(=O)N[C@H]2C[C@H](C(=O)O)C2)cc(CC2CCCCC2)c1-c1cc(C(C)(C)C)cc(C2(C)CC2)c1 [Example 19/1]
[1]
  IC50: 0.794 µM
RORγ
  pIC50 (FF): 7.2
  pIC50 (REN): 7.2

## Cn1c(CC2CCCCC2)c(-c2cc(C(C)(C)C)cc(C3(C)CC3)c2)c(Cl)c1C(=O)N[C@H]1C[C@H](C(=O)O)C1 [Example 20, trans-3-(4-(3-(tert-Butyl)-5-(1-methylcyclopropyl)phenyl)-3-chloro-5-(cyclohexylmethyl)-1-methyl-1H-pyrrole-2-carboxamido)cyclobutanecarboxylic acid]
[1]
  IC50: 3.98 µM
RORγ
  pIC50 (FF): 7.2
  pIC50 (REN): 7.3

## Cc1c(C(=O)N[C@H]2C[C@H](C(=O)O)C2)cn(-c2cc(C(C)(C)C)cc(C3(C)CC3)c2)c1SC1CCCCC1 [Example 21, trans-3-(1-(3-(tert-Butyl)-5-(1-methylcyclopropyl)phenyl)-5-(cyclohexylthio)-4-methyl-1H-pyrrole-3-carboxamido)cyclobutanecarboxylic acid]
[1]
  IC50: 0.794 µM
RORγ
  pIC50 (FF): 8.0
  pIC50 (REN): 8.2
